Source: PMC8474119, “Discovery and SAR Evolution of Pyrazole Azabicyclo[3.2.1]octane Sulfonamides as a Novel Class of Non-Covalent N-Acylethanolamine-Hydrolyzing Acid Amidase (NAAA) Inhibitors for Oral Administration” (Journal of Medicinal Chemistry, 2021)

What was measured:
[1] = Plasma stability assay, rat plasma; format: in vitro ADME; conditions: for % compound remaining at last time-point, plasma: 2.0 μM, 120 min; for half-life at 2 μM: n ≥ 3, read-out: plasma t1/2
Procedure: 10 mM DMSO stock solution of test compound (39 or 50) was diluted 50-fold with DMSO/H2O (1:1) and incubated at 37 °C for 2 h with mouse or rat plasma added with 5% DMSO (preheated at 37 °C for 10 min). The final compound’s concentration was 2.0 μM. At each time point (0, 5, 15, 30, 60, and 120 min), 50 μL of incubation mixture was diluted with 150 μL cold CH3CN spiked with 200 nM of warfarin, as the internal standard, followed by centrifugation at 3.270g for 20 min. The supernatant was further diluted with H2O (1:1) and analyzed by LC–MS/MS on a Waters ACQUITY UPLC-MS TQD system consisting of a triple quadrupole detector (TQD) mass spectrometer equipped with an electrospray ionization interface and a photodiode array eλ detector (PDA) from Waters Inc. (Milford, MA, USA). Electrospray ionization was applied in positive mode. Compound-dependent parameters as MRM transitions and collision energy were developed for each compound. The analyses were run on an ACQUITY UPLC BEH C18 (50 × 2.1 mm ID, particle size 1.7 μm) with a VanGuard BEH C18 precolumn (5 × 2.1 mm ID, particle size 1.7 μm) at 40 °C, using H2O + 0.1% HCOOH (A) and CH3CN + 0.1% HCOOH (B) as the mobile phase. The percentage of the test compound remaining at each time point relative to t = 0 was calculated by the response factor on the basis of the internal standard peak area. The percentage of test compound versus time was plotted and fitted by GraphPad Prism (GraphPad Software, Version 5 for Windows, CA, USA, www.graphpad.com) to estimate the compound’s half-life (t1/2), which was reported as mean value along with the standard deviation (n = 3).

[2] = Liver microsomal stability assay (NADPH), mouse; format: in vitro ADME; conditions: for half-life at 4.6 μM: male, CD1, pH 7.5, mouse liver microsomes, read-out: LM_NADPH t1/2; for % compound remaining at last time-point, LM_NADPH: mouse liver microsomes, 4.6 μM, 60 min
Procedure: Pooled CD1 mouse (M1000, male), IGS Sprague-Dawley rat (R1000, male), and human (H1000, male) liver microsomes were purchased from SEKISUI XenoTech. 10 mM DMSO stock solution of the test compound (39 or 50) was preincubated at 37 °C for 15 min with mouse, rat, or human liver microsomes in 0.1 M Tris-HCl buffer (pH 7.5) with 10% DMSO. The final concentration was 4.6 μM. After preincubation, the cofactor (NADPH) was added to the incubation mixture, and the incubation was continued at 37 °C for 1 h. At each time point (0, 5, 15, 30, and 60 min), 30 μL of incubation mixture was diluted with 200 μL cold CH3CN spiked with 200 nM of an appropriate internal standard, followed by centrifugation at 3.270g for 15 min. The supernatant was further diluted with H2O (1:1) for analysis. A reference incubation mixture of each specie (microsomes without cofactors) was prepared for each test compound and analyzed at t = 0 and 60 min in order to verify the compound stability in the matrix. The two time points were diluted as for the time points of the incubation mixture above. The supernatants were analyzed by LC–MS/MS on a Waters ACQUITY UPLC-MS TQD system consisting of a triple quadrupole detector (TQD) mass spectrometer equipped with an electrospray ionization interface and a photodiode array eλ detector (PDA) from Waters Inc. (Milford, MA, USA). Electrospray ionization was applied in positive mode. Compound-dependent parameters as MRM transitions and collision energy were developed for each compound. The analyses were run on an ACQUITY UPLC BEH C18 (50 × 2.1 mm ID, particle size 1.7 μm) with a VanGuard BEH C18 precolumn (5 × 2.1 mm ID, particle size 1.7 μm) at 40 °C, using H2O + 0.1% HCOOH (A) and CH3CN + 0.1% HCOOH (B) as the mobile phase. The percentage of test compound remaining at each time point relative to t = 0 was calculated by the response factor on the basis of the internal standard peak area. The percentage of test compound versus time was plotted and fitted by GraphPad Prism (GraphPad Software, Version 5 for Windows, CA, USA, www.graphpad.com) to estimate the compound’s half-life (t1/2), which was reported as mean value along with the standard deviation (n = 3).

Compound	% compound remaining at last time-point, plasma [1]	half-life at 2 μM [1]	half-life at 4.6 μM [2]	% compound remaining at last time-point, LM_NADPH [2]
CCCCc1ccc(O[C@H]2C[C@H]3CC[C@@H](C2)N3S(=O)(=O)c2c(C)n[nH]c2C)cc1 [Compound 39, (1R,3r,5S)-3-(4-Butylphenoxy)-8-((3,5-dimethyl-1H-pyrazol-4-yl)sulfonyl)-8-azabicyclo[3.2.1]octane]	93%	> 2 h	> 1 h	93%
CCOCc1cnc(O[C@H]2C[C@H]3CC[C@@H](C2)N3S(=O)(=O)c2c(C)n[nH]c2C)cn1 [Compound 50, (1R,3r,5S)-8-((3,5-Dimethyl-1H-pyrazol-4-yl)sulfonyl)-3-((5-(ethoxymethyl)pyrazin-2-yl)oxy)-8-azabicyclo[3.2.1]octane]	93%	> 2 h	> 1 h	55%
